One data set addresses Cathepsin B (Homo sapiens (Human), UniProt P07858). The experiment in a line: Cathepsin B inhibition assay. Conditions: Table 4; read-out: IC50 (nM) CatB. Type of data set: biochemical.
The target in a further data set is Cathepsin S (Homo sapiens (Human), UniProt P25774). The experiment in a line: Cathepsin S inhibition assay. Type of data set: biochemical. Conditions: Table 4; read-out: IC50 (nM) CatS.
Another data set deals with Cathepsin K (Homo sapiens (Human), UniProt P43235). The experiment in a line: Cathepsin K inhibition assay. Conditions: Table 4; read-out: IC50 (nM) CatK. Type of data set: biochemical.
The next data set has as its target Cathepsin H (Homo sapiens (Human), UniProt P09668). The experiment in a line: Cathepsin H inhibition assay. The data set is classed as biochemical. Conditions: Table 4; read-out: IC50 (nM) CatH.
The target of another data set is cathepsin F (Homo sapiens (Human), UniProt Q9UBX1). The experiment in a line: Cathepsin F inhibition assay. The data set is classed as biochemical. Conditions: Table 4; read-out: IC50 (nM) CatF. Here is the method:
(§1) The capacities of compounds of the present invention to inhibit the activity of cathepsins B, H, K, L, and S were measured in similar assays. Boc-Leu-Arg-Arg-AMC (20 μM) in sodium acetate buffer (50 mM, pH 5.5) containing DTT (1 mM) and EDTA (2 mM) was used for the Cathepsin B assay. L-Arg-AMC (20 μM) in sodium acetate buffer (50 mM, pH 5.5) containing DTT (1 mM) and EDTA (2 mM) was used for the Cathepsin H assay. Z-Phe-Arg-AMC (10 μM) in HEPES buffer (50 mM, pH 7.4) containing DTT (2.5 mM) and EDTA (1 mM) was used for the Cathepsin K assay. Z-Phe-Arg-AMC (20 μM) in sodium acetate buffer (50 mM, pH 5.5) containing DTT (1 mM) and EDTA (2 mM) was used for the Cathepsin L assay. Z-Leu-Arg-AMC (10 μM) in sodium acetate buffer (25 mM, pH 4.5) containing DTT (2.5 mM) and NaCl (50 mM) was used for the Cathepsin S assay. The capacities of the compounds to inhibit the activity of cathepsins F, V, and Z were also measured.
(§2) Further assays to measure the inhibitory activity of compounds of the present invention against Kgp and cathepsins B, H, K, L, and S were conducted as described in Example 66. The capacities of the compounds to inhibit the activity of cathepsins F, V, and Z were also measured.

A further data set has as its target cathepsin V (Homo sapiens (Human), UniProt O60911). The data set can be described thus: Cathepsin V inhibition assay. The data set is classed as biochemical. Conditions: Table 4; read-out: IC50 (nM) CatV. Here is the method: as §1, §2
For a further data set, the target named is cathepsin Z (Homo sapiens (Human), UniProt Q9UBR2). The data set can be described thus: Cathepsin Z inhibition assay. The data set is classed as biochemical. Conditions: Table 4; read-out: IC50 (nM) CatZ. Here is the method:
as §1, §2

A short description of data set [1]: Pharmacokinetics in male CD-1 mice dosed p.o. Type of data set: in vivo. Conditions: p.o. 10 mg/kg, compared to reference compound 73.
Another data set has as its target Kgp (Porphyromonas gingivalis (Bacteroides gingivalis), UniProt Q51817). The experiment in a line: Cy5 activity-based probe detection of Kgp in P. gingivalis lysate. Type of data set: binding. Conditions: 100 nM, FIG. 9C. Here is the method:
It has a warhead that binds to the Kgp active site, a peptide-based core, and a Cy5 fluorophore for detection. Labeled target proteins can be visualized by biochemical separation of a sample with fractionation by 2-D gel electrophoresis and detection of fluorescent signals from Cy5 at the appropriate excitation and emission wavelength. Incubation of a fixed concentration of the probe following binding of Kgp to a test compound (e.g., a candidate Kgp inhibitor) results in binding of the activity probe to Kgp active sites not already bound by the test compound.
10^8 bacteria were collected and centrifuged at 5000 g for 10 min at 4° C., and the supernatant was discarded. The bacterial cell pellet was lysed with 1 mL of B-Per lysis buffer (Thermo Fischer) on ice for 10 min, then centrifuged for 10 min at 14000 g, 4° C. Supernatant-containing protein lysate was collected. Biological samples were lysed with B-Per lysis buffer for 10 min at 4° C.
Biological samples, P. gingivalis lysate or purified Kgp were incubated with quenchable Cy5 probe compound 71 (1 μM) for 1 h at 37° C. with shaking. Then, samples were denatured with NUPAGE LDS sample buffer (Thermo Fisher) containing 50 mM DTT at 95° C. for 10 min and subjected to SDS-PAGE electrophoresis using a Criterion 4-15% precast gel (Bio-Rad) and Tris/Glycine/SDS running buffer (Bio-Rad). The gel was run at 75V for 10 min and then 125V for 1.5 h. The gel was then removed from the plastic cassette and subjected to Cy5 visualization with a ChemiDoc imaging system (Bio-Rad).
Samples were labeled with quenchable Cy5 probe compound 71 (1 μM) for 1 h at 37° C. with shaking. For immunoprecipitation of Cy5 labeled Kgp, the samples were then incubated with 10 μg of rabbit polyclonal CAB102 antibody with rotation overnight at 4° C. Then, samples were incubated with prewashed Dynabead Protein G beads with rotation for 20 min at room temperature. The samples were washed 4 times with 200 μL of washing buffer, using a magnetic rack. […]

The results in this text go back to patent US10730826B2, “Ketone inhibitors of lysine gingipain” (CORTEXYME, INC., priority 2016, dated 2020).

Structures are written as SMILES.

cathepsin F, sequence (Q9UBX1 271-484): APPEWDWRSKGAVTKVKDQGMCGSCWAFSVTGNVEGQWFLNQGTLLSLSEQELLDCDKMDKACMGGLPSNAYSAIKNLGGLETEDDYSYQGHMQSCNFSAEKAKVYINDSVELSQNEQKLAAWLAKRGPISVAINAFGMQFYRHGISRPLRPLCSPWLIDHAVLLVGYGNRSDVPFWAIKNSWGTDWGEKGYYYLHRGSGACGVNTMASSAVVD
cathepsin V, sequence (O60911 114-334): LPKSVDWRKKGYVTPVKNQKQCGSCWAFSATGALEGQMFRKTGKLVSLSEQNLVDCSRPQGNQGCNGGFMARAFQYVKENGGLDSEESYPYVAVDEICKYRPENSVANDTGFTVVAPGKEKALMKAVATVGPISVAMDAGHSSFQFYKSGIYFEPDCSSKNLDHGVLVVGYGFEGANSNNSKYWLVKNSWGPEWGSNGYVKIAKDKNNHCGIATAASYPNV
Kgp, sequence (Q51817 229-737 limits assumed): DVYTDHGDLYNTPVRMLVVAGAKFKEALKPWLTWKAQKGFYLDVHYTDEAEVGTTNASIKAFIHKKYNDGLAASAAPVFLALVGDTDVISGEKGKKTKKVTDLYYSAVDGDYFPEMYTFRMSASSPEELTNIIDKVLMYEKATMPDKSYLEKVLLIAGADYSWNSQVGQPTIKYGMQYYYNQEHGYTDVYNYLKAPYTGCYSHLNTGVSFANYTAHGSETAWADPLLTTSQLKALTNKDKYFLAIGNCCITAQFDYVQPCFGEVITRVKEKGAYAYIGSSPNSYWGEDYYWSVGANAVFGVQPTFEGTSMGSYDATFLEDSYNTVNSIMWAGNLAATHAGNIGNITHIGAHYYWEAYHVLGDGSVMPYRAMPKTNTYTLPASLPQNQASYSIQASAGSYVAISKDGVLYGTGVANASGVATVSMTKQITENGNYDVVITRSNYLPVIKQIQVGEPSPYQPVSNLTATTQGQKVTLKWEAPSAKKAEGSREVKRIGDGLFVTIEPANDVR
Cathepsin S, sequence (P25774 115-331, species assumed): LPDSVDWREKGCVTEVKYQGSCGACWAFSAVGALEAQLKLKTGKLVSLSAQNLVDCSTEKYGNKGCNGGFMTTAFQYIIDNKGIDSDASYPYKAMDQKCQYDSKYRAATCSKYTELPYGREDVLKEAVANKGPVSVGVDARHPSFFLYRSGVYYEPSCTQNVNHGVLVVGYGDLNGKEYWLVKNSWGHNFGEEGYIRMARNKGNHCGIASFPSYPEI
Cathepsin H, sequence (P09668 98-335, species assumed): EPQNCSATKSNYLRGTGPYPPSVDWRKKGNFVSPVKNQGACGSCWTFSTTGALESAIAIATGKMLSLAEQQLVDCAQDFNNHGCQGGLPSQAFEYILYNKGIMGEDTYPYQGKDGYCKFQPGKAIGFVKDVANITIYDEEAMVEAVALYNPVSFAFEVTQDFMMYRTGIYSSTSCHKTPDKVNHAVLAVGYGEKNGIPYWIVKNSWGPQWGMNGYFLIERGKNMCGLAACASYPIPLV
cathepsin Z, sequence (Q9UBR2 62-303): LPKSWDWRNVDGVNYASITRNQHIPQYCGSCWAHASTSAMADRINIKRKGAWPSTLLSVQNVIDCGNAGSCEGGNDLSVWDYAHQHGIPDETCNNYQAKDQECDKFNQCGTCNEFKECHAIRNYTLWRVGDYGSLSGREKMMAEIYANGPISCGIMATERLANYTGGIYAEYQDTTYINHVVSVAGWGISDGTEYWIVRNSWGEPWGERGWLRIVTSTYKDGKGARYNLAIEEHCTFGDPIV
Cathepsin K, sequence (P43235 115-329, species assumed): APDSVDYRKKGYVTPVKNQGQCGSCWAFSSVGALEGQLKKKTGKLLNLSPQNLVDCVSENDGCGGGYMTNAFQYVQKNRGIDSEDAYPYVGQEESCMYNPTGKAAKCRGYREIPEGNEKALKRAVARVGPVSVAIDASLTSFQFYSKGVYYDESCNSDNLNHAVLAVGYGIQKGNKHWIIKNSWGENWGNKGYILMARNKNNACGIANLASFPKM

`NCCCC[C@H](NC(=O)C1CCCC1)C(=O)COc1c(F)ccc(F)c1F` [Compound 1, (S)—N-(7-amino-2-oxo-1-(2,3,6-trifluorophenoxy)heptan-3-yl)cyclopentanecarboxamide]: the IC50 was 380 nM on Cathepsin B; above 10000 nM on Cathepsin S; 117 nM on Cathepsin K; 560 nM at Cathepsin H; 6100 nM on cathepsin F; above 10000 nM at cathepsin V. Besides, at cathepsin Z, the concentration for half-maximal inhibition (IC50) is above 10000 nM. In data set [1], the oral availability result is listed as “improved oral availability”. For the same molecule, the plasma concentrations entry in data set [1] is given as “increased plasma concentrations”. Also, the “competition with probe compound 71 for Kgp active site” value on Kgp is “competes for active site binding”.
